Assay results taken from patent US20210308188A1, “CELL CLUSTER INCLUDING OLFACTORY NEURON OR PRECURSOR CELL THEREOF, AND METHOD FOR PRODUCING SAME” (SUMITOMO CHEMICAL COMPANY, LIMITED, priority 2018, published 2021).

Experiments:
Type in all cases: cell-based
human iPS cells [1] = assay: Cell cluster production with EGF and second Wnt signaling pathway inhibitory substance (Experiment 6); settings: EGF 20 ng/ml added on day 13 and XAV939 300 nM on day 17 (both added); day 28
Protocol: In Experiment 6, as shown in the upper section of FIG. 17, a cell cluster including an olfactory receptor neuron or a precursor cell thereof was produced by performing step (3c) as step (3) from the beginning, adding EGF from the middle of step (3c), and then culturing in the presence of XAV939 as a second Wnt signaling pathway inhibitory substance. The same manipulations as in Experiment 3 were performed except for those specifically indicated.
Specifically, steps (a), (1) and (2) were started with maintenance-cultured human iPS cells, and then, on day 3 after the start of suspension culturing, the medium was half exchanged with a serum-free medium being free of Y27632 and BMP4 and containing IWP-2, SB-431542, FGF2, Heparin Sodium and K02288 (start of step (3c)). FGF2, Heparin Sodium, and K02288 were included to be final concentrations in the well of 20 ng/ml, 10 μg/ml, and 1 μM, respectively. Thereafter, on days 6 and 10 after the start of suspension culturing, the medium was half exchanged with a serum-free medium being free of Y27632 and BMP4 and containing IWP-2, SB-431542, FGF2, Heparin Sodium and K02288. In addition, on day 13 after the start of suspension culturing, in addition to the above factors, EGF (manufactured by PrimeGene Co., Ltd.) was added to be a final concentration of 20 ng/ml. […]

[2] = tested on: human iPS cell line HC-6 #10; assay: Combination use of Wnt signaling pathway-activating substance and inhibitory substance in cell cluster production (Experiment 14)
Excerpt: Cell clusters were produced in accordance with the procedures shown in the upper section of FIG. 28 by using Wnt signaling pathway-activating substance and inhibitory substance in combination. Human iPS cells (HC-6 #10 cell line, obtained from the Institute of Physical and Chemical Research) were subjected to maintenance culturing and step (a) in the same manner as in Experiment 1. The suspension culturing was started on a 96-well culture plate in the same manner as in Experiment 1, except that the number of cells per well was 9×10^3 cells. At the start of suspension culturing (day 0 after the start of suspension culturing, start of step (1)), Y27632 (final concentration 20 μM), IWP-2 (final concentration 2 μM), and SB-431542 (final concentration 1 μM) were added to the serum-free medium. In addition, CHIR99021 (manufactured by Cayman Chemical, Inc.) was added as a Wnt signaling pathway-activating substance such that the final concentration was 300 nM. When the Wnt signaling pathway inhibitory substance IWP-2 and the Wnt signaling pathway-activating substance CHIR99021 are used in combination, β-catenin-dependent Wnt Canonical Pathway is activated and β-catenin-independent Wnt-non-Canonical Pathway is inhibited. On day 2 after the start of suspension culturing, a serum-free medium being free of Y27632 and containing SB-431542, BMP4, IWP-2 and CHIR99021 was added at 100 μl per well (start of step (2)). BMP4 was added to the medium at 3 nM to be a final concentration in the well of 1.5 nM. On day 3 after the start of suspension culturing, the medium was half exchanged with a serum-free medium being free of Y27632 and BMP4 and containing IWP-2, SB-431542, FGF2 and CHIR99021 (start of step (3a)). Thereafter, on days 6 and 10 after the start of suspension culturing, the medium was half exchanged with a serum-free medium being free of Y27632 and BMP4 and containing IWP-2, SB-431542, FGF2, CHIR99021, and K02288 (start of step (3c)). […]

human iPS cells [3] = assay: Study for first Wnt signaling pathway inhibitory substance in cell cluster production (Experiment 9); settings: added from start of suspension culturing (IWP-2, IWP-3, IWP-4 2 μM; Wnt C-59 20 nM; KY02111 1 μM); BMP4 on day 2; day 28
Protocol: In Experiment 9, a study of cell cluster production efficiency was performed for the type of the first Wnt signaling pathway inhibitory substance, using human iPS cells. The experiments were performed in accordance with the procedures shown in the upper section of FIG. 22, and the same manipulations as in Experiment 3 were performed except for those specifically indicated. The suspension culturing of the human iPS cells subjected to maintenance culturing and step (a) was started in a medium supplemented with a first Wnt signaling pathway inhibitory substance, Y27632 (final concentration 20 μM) and SB-431542 (final concentration 1 μM).
As the first Wnt signaling pathway inhibitory substance, IWP-2 (manufactured by Tocris Biosciences, final concentration 2 μM), IWP-3 (manufactured by Cayman Chemicals, final concentration 2 μM), IWP-4 (manufactured by Cayman Chemicals, final concentration 2 μM), Wnt C-59 (manufactured by Cayman Chemicals, final concentration 20 nM), or KY02111 (manufactured by Cayman Chemicals, final concentration 1 μM) was used. As a control in which the first Wnt signaling pathway inhibitory substance was not added, DMSO was added.
On day 2 after the start of suspension culturing, a serum-free medium being free of Y27632 and containing each first Wnt signaling pathway inhibitory substance, SB-431542 and BMP4 (final concentration 1.5 nM) was added at 100 μl per well. In addition, on day 3 after the start of suspension culturing, the medium was half exchanged with a serum-free medium being free of Y27632 and BMP4 and containing SB-431542, K02288, FGF2, Heparin Sodium, and EGF. K02288, FGF2, Heparin Sodium, EGF were included to final concentrations in the well were 10 μM, 20 ng/ml, 10 μg/ml and 20 ng/ml, respectively. On days 6, 10, 13, 17, 21, and 24 after the start of suspension culturing, the medium was half exchanged with a serum-free medium being free of Y27632 and BMP4 and containing each first Wnt signaling pathway inhibitory substance, SB-431542, K02288, FGF2, Heparin Sodium, and EGF.
On day 28 after the start of suspension culturing, bright-field observation was performed with an inverted microscope (FIGS. 22A to 22F).
The cell clusters on day 28 after the start of suspension culturing were subjected to immunofluorescence staining in accordance with the same method as in Comparative Experiment 1. As primary antibodies, an anti-Six1 antibody and an anti-pan-cytokeratin antibody staining placode and non-neural epithelial tissues, and an anti-Sox2 antibody staining placode and neural cells, described in Table 1, were used. As fluorescently labeled secondary antibodies, an Alexa488-labeled donkey anti-rabbit antibody, a CF555-labeled donkey anti-goat antibody, and an Alexa647-labeled donkey anti-mouse antibody, described in Table 2, were used to perform multiple staining. Hoechst 33342 was used for contrast staining of the nucleus. The positive and negative determinations of the staining results were performed in the same manner as in Preliminary Experiment 1.
Under the conditions in which the first Wnt signaling pathway inhibitory substance was not added, no non-neural epithelial tissue was formed on the surface of the cell aggregate even when BMP4 was added on day 2 after the start of suspension culturing.

[4] = CHIR99021 300 nM added together with IWP-2 2 μM, day 21

| Compound | formation of aggregates having non-neural epithelial tissues on the surface (human iPS cells [3]) | further results |
| --- | --- | --- |
| O=c1[nH]c(-c2ccc(C(F)(F)F)cc2)nc2c1CSCC2 [3,5,7,8-Tetrahydro-2-[4-(trifluoromethyl)phenyl]-4H-thiopyrano[4,3-d]pyrimidin-4-one] |  | stability of non-neural epithelial tissue part including olfactory receptor neuron or precursor cell versus conditions without addition (human iPS cells [1]): more stable |
| Cc1c[nH]c(-c2cnc(NCCNc3ccc(C#N)cn3)nc2-c2ccc(Cl)cc2Cl)n1 [CHIR99021] |  | formation of olfactory epithelial-like tissue on the external of the cell cluster [2, 4]: formed an olfactory epithelial-like tissue on the external of the cell cluster; number of dead cells in neural tissues inside of the cell clusters [2, 4]: reduced; extent of CHIR99021 at which Wnt-Canonical Pathway activity promotes survival of nervous tissues inside of the cell cluster and epithelial formation ([2]; combination with IWP-2): ≤ 3 µM |
| Cc1ccc2nc(NC(=O)CSc3nc4c(c(=O)n3-c3ccccc3)SCC4)sc2c1 [IWP-2, N-(6-Methyl-2-benzothiazolyl)-2-[(3,4,6,7-tetrahydro-4-oxo-3-phenylthieno[3,2-d]pyrimidin-2-yl)thio]-acetamide] | aggregates having non-neural epithelial tissues on the surface were formed |  |
| Cc1ccc2nc(NC(=O)CSc3nc4c(c(=O)n3-c3ccc(F)cc3)SCC4)sc2c1 [IWP-3, 2-[[3-(4-fluorophenyl)-3,4,6,7-tetrahydro-4-oxothieno[3,2-d]pyrimidin-2-yl]thio]-N-(6-methyl-2-benzothiazolyl)-acetamide] | aggregates having non-neural epithelial tissues on the surface were formed |  |
| COc1ccccc1-n1c(SCC(=O)Nc2nc3ccc(C)cc3s2)nc2c(c1=O)SCC2 [IWP-4, N-(6-methyl-2-benzothiazolyl)-2-[[3,4,6,7-tetrahydro-3-(2-methoxyphenyl)-4-oxothieno[3,2-d]pyrimidin-2-yl]thio]-acetamide] | aggregates having non-neural epithelial tissues on the surface were formed |  |
| COc1ccc(CCC(=O)Nc2nc3ccc(Cl)cc3s2)cc1OC [KY02111, N-(6-Chloro-2-benzothiazolyl)-3,4-dimethoxybenzenepropanamide] | aggregates having non-neural epithelial tissues on the surface were formed |  |
| Cc1cc(-c2ccc(CC(=O)Nc3ccc(-c4cccnc4)cc3)cc2)ccn1 [Wnt C-59, 2-[4-(2-Methylpyridin-4-yl)phenyl]-N-[4-(pyridin-3-yl)phenyl]acetamide] | aggregates having non-neural epithelial tissues on the surface were formed |  |
| EGF: EGF signaling pathway-activating substance, manufactured by PrimeGene (NSDSECPLSHDGYCLHDGVCMYIEALDKYACNCVVGYIGERCQYRDLKWWELR; Epidermal growth factor; UniProt P01133 971-1023, looked up) |  | stability of non-neural epithelial tissue part including olfactory receptor neuron or precursor cell versus conditions without addition (human iPS cells [1]): more stable |
